Molecules are shown by their SMILES.

For the assay, the target named is T1, Human TRPC6 (Homo sapiens, UniProt Q9Y210).
T1 construct: expressed in transfected cells
T1 sequence (Q9Y210 1-931): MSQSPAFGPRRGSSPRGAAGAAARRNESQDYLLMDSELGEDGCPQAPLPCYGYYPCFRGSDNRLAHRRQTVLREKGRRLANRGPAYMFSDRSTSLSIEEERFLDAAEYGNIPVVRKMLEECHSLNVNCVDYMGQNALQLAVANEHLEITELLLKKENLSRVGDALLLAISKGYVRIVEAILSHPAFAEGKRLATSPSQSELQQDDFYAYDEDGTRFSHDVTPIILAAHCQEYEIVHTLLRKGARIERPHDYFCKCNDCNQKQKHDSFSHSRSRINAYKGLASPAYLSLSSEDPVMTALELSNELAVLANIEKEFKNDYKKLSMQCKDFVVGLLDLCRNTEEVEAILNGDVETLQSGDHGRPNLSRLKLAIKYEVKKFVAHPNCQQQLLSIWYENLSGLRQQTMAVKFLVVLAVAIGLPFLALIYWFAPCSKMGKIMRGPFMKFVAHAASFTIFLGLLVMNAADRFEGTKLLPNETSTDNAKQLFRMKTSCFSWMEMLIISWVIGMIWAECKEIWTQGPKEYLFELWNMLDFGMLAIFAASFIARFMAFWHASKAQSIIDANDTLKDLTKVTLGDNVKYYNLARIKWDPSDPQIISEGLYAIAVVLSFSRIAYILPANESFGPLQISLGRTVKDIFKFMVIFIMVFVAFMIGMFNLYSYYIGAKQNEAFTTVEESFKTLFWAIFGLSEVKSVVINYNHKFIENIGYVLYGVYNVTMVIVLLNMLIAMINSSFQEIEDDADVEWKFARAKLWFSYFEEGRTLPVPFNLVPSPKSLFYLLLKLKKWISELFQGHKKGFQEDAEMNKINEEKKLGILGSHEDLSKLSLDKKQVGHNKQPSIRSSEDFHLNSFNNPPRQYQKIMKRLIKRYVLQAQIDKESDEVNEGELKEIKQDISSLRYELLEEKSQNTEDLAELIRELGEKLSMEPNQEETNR
Kind of assay: Evaluation of TRPC6 channel inhibitory activity (1), FLIPR Calcium 5 Assay Kit, OAG stimulation (Compound Nos. 1-1293). The format is cell-based. To be noted: Human TRPC6 stably-expressing cells, OAG 30 μM, FLIPR Calcium 5 Assay Kit; read-out: Inhibitory activity (pIC50 class) (converted). The method in brief: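 TRPC6 (human) stable cells, 24 h culture; Ca5 no-wash dye + probenecid 30 min; cpd 20 min; OAG 30 μM final; ΔF (pre-cpd min to post-OAG max); 0%/100% = no cpd / no cpd + no OAG; 4PL → pIC50, binned +/++/+++.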
With `N#Cc1ccc(-c2ccc(CCN)cn2)c(Cn2cnc(-c3ccccc3F)c2)c1` [compound 1143, 4-[5-(2-aminoethyl)pyridin-2-yl]-3-[[4-(2-fluorophenyl)imidazol-1-yl]methyl]benzonitrile], the IC50 is less than 10 nM. As for `Cc1cc(Oc2cc(C#N)ccc2-n2cc(CCN)cn2)n(C)n1` [compound 304, 4-[4-(2-aminoethyl)pyrazol-1-yl]-3-(2,5-dimethylpyrazol-3-yl)oxybenzonitrile], the figure is greater than 1000 nM; as for `Cn1nc(N)cc1Oc1cc(C#N)ccc1-c1ccc(CCN)cn1` [compound 577, 4-[5-(2-aminoethyl)pyridin-2-yl]-3-(5-amino-2-methylpyrazol-3-yl)oxybenzonitrile], 10 to 1000 nM. As for `Cn1nc(N2CCCCC2)cc1C(=O)c1cc(C#N)ccc1-c1ncc(CCN)cn1` [compound 1062, 4-[5-(2-aminoethyl)pyrimidin-2-yl]-3-(2-methyl-5-piperidin-1-ylpyrazole-3-carbonyl)benzonitrile], the figure is less than 10 nM; as for `N#Cc1ccc(-c2ccc(CCN)cc2)c(Oc2cnnc(OC3CCOC3)c2)c1` (stereo not drawn) [Compound 125, 4-[4-(2-aminoethyl)phenyl]-3-[6-(oxolan-3-yloxy)pyridazin-4-yl]oxybenzonitrile], 10 to 1000 nM; as for `Cn1nc(N2CCOCC2)cc1Oc1cc(F)ccc1-c1ccc(CCN)cn1` [compound 975, 2-[6-[4-fluoro-2-(2-methyl-5-morpholin-4-ylpyrazol-3-yl)oxyphenyl]pyridin-3-yl]ethanamine], less than 10 nM.

For `Cn1nc(C2CC2)cc1Oc1cc(C#N)ccc1-c1cc(CN)cn2cnnc12` [compound 731, 4-[6-(aminomethyl)-[1,2,4]triazolo[4,3-a]pyridin-8-yl]-3-(5-cyclopropyl-2-methylpyrazol-3-yl)oxybenzonitrile], the IC50 was greater than 1000 nM. For `Cc1cc(C(=O)c2cc(F)ccc2-c2ncc(CCN)cn2)cc(N2CCOCC2)n1` [compound 1097, [2-[5-(2-aminoethyl)pyrimidin-2-yl]-5-fluorophenyl]-(2-methyl-6-morpholin-4-ylpyridin-4-yl)methanone] the value was less than 10 nM; for `Cc1nc(OCC2CCC2)cc(Oc2cc(C#N)ccc2-c2ccc(CCN)cc2)n1` [Compound 43, 4-[4-(2-aminoethyl)phenyl]-3-[6-(cyclobutylmethoxy)-2-methylpyrimidin-4-yl]oxybenzonitrile], 10 to 1000 nM; for `Cc1cc(Oc2cc(C#N)ccc2-c2ccc(CCN)cn2)cc(-c2ccccn2)n1` [Compound 258, 4-[5-(2-aminoethyl)pyridin-2-yl]-3-(2-methyl-6-pyridin-2-ylpyridin-4-yl)oxybenzonitrile], less than 10 nM.

Take `Cc1nc(Oc2cc(C#N)ccc2-n2cc(C(O)CN(C)C)cn2)cc(-c2ccccc2)n1` (stereo not drawn) [Compound 104, 4-[4-[2-(dimethylamino)-1-hydroxyethyl]pyrazol-1-yl]-3-(2-methyl-6-phenylpyrimidin-4-yl)oxybenzonitrile]: the IC50 is greater than 1000 nM. As for `Cn1nc(-c2ccccc2)cc1Oc1cc(C#N)ccc1-c1ccc(CCN)cn1` [Compound 175, 4-[5-(2-aminoethyl)pyridin-2-yl]-3-(2-methyl-5-phenylpyrazol-3-yl)oxybenzonitrile], the figure is less than 10 nM.

`Cn1nc(-c2ccccc2)cc1Oc1cc(C#N)ccc1-c1ccc(CCN)cc1` [Compound 115, 4-[4-(2-aminoethyl)phenyl]-3-(2-methyl-5-phenylpyrazol-3-yl)oxybenzonitrile]: the IC50 was less than 10 nM. For `Cc1cc(Oc2cc(C#N)ccc2-c2ncc(CCN)cn2)cc(-c2nccn2C)n1` [compound 687, 4-[5-(2-aminoethyl)pyrimidin-2-yl]-3-[2-methyl-6-(1-methylimidazol-2-yl)pyridin-4-yl]oxybenzonitrile] the value was greater than 1000 nM; for `Cn1nc(C2CC2)cc1Oc1cc(C#N)ccc1-c1cc(C(=O)N2CCC[C@H](N)C2)cn2ccnc12` [compound 756, 4-[6-[(3S)-3-aminopiperidine-1-carbonyl]imidazo[1,2-a]pyridin-8-yl]-3-(5-cyclopropyl-2-methylpyrazol-3-yl)oxybenzonitrile], greater than 1000 nM; for `Cc1nc(Oc2cc(C#N)ccc2-n2cc(C(O)C(C)(C)N)cn2)cc(N2CCOCC2)n1` (stereo not drawn) [compound 302, 4-[4-(2-amino-1-hydroxy-2-methylpropyl)pyrazol-1-yl]-3-(2-methyl-6-morpholin-4-ylpyrimidin-4-yl)oxybenzonitrile], 10 to 1000 nM. As for `N#Cc1ccc(-c2ncc(CCN)cn2)c([S+]([O-])c2cnnc(N3CCCCC3)c2)c1` (stereo not drawn) [Compound No. 1276, 4-[5-(2-Aminoethyl)pyrimidin-2-yl]-3-(6-piperidin-1-ylpyridazin-4-yl)sulfinylbenzonitrile], the figure is greater than 1000 nM; as for `N#Cc1ccc(-c2ncc(CCN)cn2)c(Oc2cnnc(-c3ccccc3)c2)c1` [Compound 277, 4-[5-(2-aminoethyl)pyrimidin-2-yl]-3-(6-phenylpyridazin-4-yl)oxybenzonitrile], less than 10 nM; as for `Cn1nc(C(C)(C)C)cc1C(O)c1cc(C#N)ccc1-c1ccc(CN)cn1` (stereo not drawn) [compound 1233, 4-[5-(aminomethyl)pyridin-2-yl]-3-[(5-tert-butyl-2-methylpyrazol-3-yl)-hydroxymethyl]benzonitrile], less than 10 nM. For `Cc1nc(OCC(C)(C)C)cc(Oc2cc(C#N)ccc2-c2ccc(CCN)cc2)n1` [Compound 47, 4-[4-(2-Aminoethyl)phenyl]-3-[6-(2,2-dimethylpropoxy)-2-methylpyrimidin-4-yl]oxybenzonitrile] the value was 10 to 1000 nM; for `Cn1nc(C2CC2)cc1Oc1cc(C#N)ccc1-c1ncc(C(N)CO)cn1` (stereo not drawn) [compound 420, 4-[5-(1-amino-2-hydroxyethyl)pyrimidin-2-yl]-3-(5-cyclopropyl-2-methylpyrazol-3-yl)oxybenzonitrile], 10 to 1000 nM. As for `NCCc1cnc(-c2ccc(F)cc2Oc2cnn(CC(F)(F)F)c2)nc1` [compound 1019, 2-[2-[4-fluoro-2-[1-(2,2,2-trifluoroethyl)pyrazol-4-yl]oxyphenyl]pyrimidin-5-yl]ethanamine], the IC50 is 10 to 1000 nM.

Consider `Cc1cc(Oc2cc(C#N)ccc2-c2ncc(CN)cn2)cc(NC(C)C)n1` [compound 644, 4-[5-(aminomethyl)pyrimidin-2-yl]-3-[2-methyl-6-(propan-2-ylamino)pyridin-4-yl]oxybenzonitrile], for which the IC50 was less than 10 nM. As for `Cn1nc(C2CC2)cc1Oc1cc(C#N)ccc1-c1cnc(NCCN)nc1` [compound 431, 4-[2-(2-aminoethylamino)pyrimidin-5-yl]-3-(5-cyclopropyl-2-methylpyrazol-3-yl)oxybenzonitrile], the figure is 10 to 1000 nM; as for `Cn1nc(C2CC2)cc1Oc1cc(C#N)ccc1-c1ccc(CN2CCOCC2)cn1` [compound 424, 3-(5-cyclopropyl-2-methylpyrazol-3-yl)oxy-4-[5-(morpholin-4-ylmethyl)pyridin-2-yl]benzonitrile], greater than 1000 nM.

With `Cc1cc(Oc2cc(C#N)ccc2-c2ncc(CN)cn2)cc(N2CCOCC2)n1` [compound 328, 4-[5-(aminomethyl)pyrimidin-2-yl]-3-(2-methyl-6-morpholin-4-ylpyridin-4-yl)oxybenzonitrile], the IC50 was less than 10 nM.

Take `N#Cc1ccc(-c2ccc(CCN)cc2)c(Oc2cnnc(OCC(F)(F)F)c2)c1` [Compound 109, 4-[4-(2-aminoethyl)phenyl]-3-[6-(2,2,2-trifluoroethoxy)pyridazin-4-yl]oxybenzonitrile]: the IC50 is greater than 1000 nM. As for `Cc1nc(Oc2cc(C#N)ccc2-c2ncc(CN)cn2)cc(N(C)C2COC2)n1` [compound 852, 4-[5-(aminomethyl)pyrimidin-2-yl]-3-[2-methyl-6-[methyl(oxetan-3-yl)amino]pyrimidin-4-yl]oxybenzonitrile], the figure is greater than 1000 nM; as for `Cn1nc(C(F)F)cc1Oc1cc(C#N)ccc1-c1ncc(CCN)cn1` [compound 384, 4-[5-(2-aminoethyl)pyrimidin-2-yl]-3-[5-(difluoromethyl)-2-methylpyrazol-3-yl]oxybenzonitrile], less than 10 nM; as for `Cc1nc(Oc2cc(C#N)ccc2-c2ccc(C3CN(CCC(=O)O)C3)cc2)cc(N2CCOCC2)n1` [Compound 55, 3-[3-[4-[4-cyano-2-(2-methyl-6-morpholin-4-ylpyrimidin-4-yl)oxyphenyl]phenyl]azetidin-1-yl]propanoic acid], greater than 1000 nM.

Values taken from patent publication US20230167073A1 (Teijin Pharma Limited, priority 2020, published 2023).
